Among the data in patent publication US9624228B2, “Inhibitors of ERK and methods of use” (KURA ONCOLOGY, INC., priority 2013, dated 2017) are IC50 values, retold here.

Broadly, the IC50 is the concentration at which inhibition is half-maximal.

The target in one assay is ERK2 enzyme (Homo sapiens (Human), UniProt P28482). Nature of the assay: Inhibition assay of ERK (Z'-LYTE kinase assay, Ser/Thr 3 peptide substrate). Type of assay: biochemical. The conditions noted are these: In vitro ERK2 enzyme, 100 μM ATP. As for the experimental part: The inhibition of ERK activity by the compounds disclosed herein was determined using the Z′-LYTE kinase assay kit (Life Technologies) with a Ser/Thr 3 peptide substrate (Life Technologies) according to manufacturers' instructions. […] The IC50 values for the compounds were determined with 3-fold serial dilutions in duplicate. […] The final DMSO concentration in the assay was 1%. Final reaction volume was 20 μL/well in 384-well plates. Kinase reactions were conducted or 1 hour followed by the assay development reaction (1 hour) in a 20 ul/well in a 384 well plate format.
ERK2 enzyme, sequence (P28482 whole entry): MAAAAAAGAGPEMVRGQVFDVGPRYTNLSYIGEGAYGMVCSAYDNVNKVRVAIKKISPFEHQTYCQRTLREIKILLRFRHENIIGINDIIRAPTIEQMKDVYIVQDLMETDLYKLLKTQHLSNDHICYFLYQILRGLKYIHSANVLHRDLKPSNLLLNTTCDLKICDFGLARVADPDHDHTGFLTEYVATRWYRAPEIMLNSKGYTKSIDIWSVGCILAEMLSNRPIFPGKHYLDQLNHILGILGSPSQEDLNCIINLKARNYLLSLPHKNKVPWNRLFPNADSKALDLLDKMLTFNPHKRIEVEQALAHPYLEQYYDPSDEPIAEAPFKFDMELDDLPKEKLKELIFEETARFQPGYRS
On to `COc1ccc(-c2n[nH]c3cc4c(cc23)CN(Cc2cc(F)cc(F)c2)C(=O)N4)cn1` [Compound 92], for which the concentration for half-maximal inhibition (IC50) is < 50 nM.
`O=C1Nc2cc3[nH]nc(Br)c3cc2CN1Cc1cccc(Cl)c1` [Compound 25] came in with an IC50 of 250 to 1000 nM.
With `COc1ccc(CN2Cc3cc4c(-c5ccnc(C)c5)n[nH]c4cc3NC2=O)cc1` [Compound 10], the 50% inhibitory concentration (IC50) is < 50 nM.
Consider `O=C1Nc2cc3[nH]nc(-c4ccnnc4)c3cc2CN1Cc1ccc(F)cc1` [Compound 97], for which the concentration for half-maximal inhibition (IC50) was < 50 nM.
The same measure, in the same setting: to `Cc1cc(-c2n[nH]c3cc4c(cc23)CN(C2CCN(CCc3ccccc3)CC2)C(=O)N4)ccn1` [Compound 157] belongs 50 to 250 nM; to `COc1ncc(-c2n[nH]c3cc4c(cc23)CN([C@H](C)c2cccc(C#N)c2)C(=O)N4)cn1` [Compound 100], < 50 nM.
`Cc1cc(-c2n[nH]c3cc4c(cc23)CN([C@@H]2CCCN(Cc3ccc(Cl)cc3)C2)C(=O)N4)ccn1` [Compound 159]: the half-inhibitory concentration (IC50) was < 50 nM.
Compound `Cc1cc(-c2n[nH]c3cc4c(cc23)CN(C2CCN(CC3CC3)CC2)C(=O)N4)ccn1` [Compound 69] yielded a half-inhibitory concentration (IC50) of 50 to 250 nM.
Still for that read-out and setting: then `O=C1Nc2cc3[nH]nc(-c4ccc(F)cc4)c3cc2CN1Cc1ccc(F)c(Cl)c1` [Compound 40], with 50 to 250 nM.
Still for that read-out and setting: to `O=C1Nc2cc3[nH]nc(-c4ccnnc4)c3cc2CN1[C@@H]1CCCN(Cc2ccccc2F)C1` [Compound 121] belongs < 50 nM; to `Cc1cc(-c2n[nH]c3cc4c(cc23)CN([C@@H]2CCCN(C(=O)c3ccccc3)C2)C(=O)N4)ccn1` [Compound 172], < 50 nM; to `Cc1cc(-c2n[nH]c3cc4c(cc23)CN([C@@H]2CCCN(Cc3ccccc3)C2)C(=O)N4)ccn1` [Compound 63], < 50 nM.
For `COc1ncc(-c2n[nH]c3cc4c(cc23)CN(Cc2cccc(C#N)c2)C(=O)N4)cn1` [Compound 125], the IC50 was < 50 nM.
The same measure, in the same setting: then `COc1ncc(-c2n[nH]c3cc4c(cc23)CN(CCCN)C(=O)N4)cn1` [Compound 112], with < 50 nM; and `Cc1cc(-c2n[nH]c3cc4c(cc23)CN([C@@H]2CCCN(Cc3cncnc3)C2)C(=O)N4)ccn1` [Compound 166], with < 50 nM.
The same measure, in the same setting: then `COc1ncc(-c2n[nH]c3cc4c(cc23)CN(Cc2ccc(F)c(Cl)c2)C(=O)N4)cn1` [Compound 37], with < 50 nM; and `COc1ncc(-c2n[nH]c3cc4c(cc23)CN(Cc2cc(F)cc(F)c2)C(=O)N4)cn1` [Compound 88], with < 50 nM.
For `COc1ncc(-c2n[nH]c3cc4c(cc23)CN([C@@H]2CCCN(Cc3c(F)cccc3OC)C2)C(=O)N4)cn1` [Compound 103], the IC50 is < 50 nM.
The compound `Cc1cc(-c2n[nH]c3cc4c(cc23)CN(C2CN(CCc3ccccc3)C2)C(=O)N4)ccn1` [Compound 192] returned a 50% inhibitory concentration (IC50) of 50 to 250 nM.
The same measure, in the same setting: to `COc1ncc(-c2n[nH]c3cc4c(cc23)CN(CC2CCNCC2)C(=O)N4)cn1` [Compound 81] belongs 250 to 1000 nM; to `C[C@H](c1cccc(Cl)c1)N1Cc2cc3c(-c4ccnnc4)n[nH]c3cc2NC1=O` [Compound 111], < 50 nM; to `Cc1cc(-c2n[nH]c3cc4c(cc23)CN(Cc2cscn2)C(=O)N4)ccn1` [Compound 47], < 50 nM.
The same measure, in the same setting: to `COc1ncc(-c2n[nH]c3cc4c(cc23)CN([C@@H]2CCCN(Cc3ccccc3)C2)C(=O)N4)cn1` [Compound 104] belongs < 50 nM.
In the case of `COc1ncc(-c2n[nH]c3cc4c(cc23)CN(Cc2ccc(F)cc2F)C(=O)N4)cn1` [Compound 99], the concentration for half-maximal inhibition (IC50) was < 50 nM.
Same read-out and setting: then `O=C1Nc2cc3[nH]nc(C4CC4)c3cc2CN1Cc1ccc(F)c(Cl)c1` [Compound 42], with 50 to 250 nM; and `COc1cccc(F)c1CN1CCC[C@@H](N2Cc3cc4c(-c5ccnc(C)c5)n[nH]c4cc3NC2=O)C1` [Compound 144], with < 50 nM.
Same read-out and setting: then `[2H]c1c([2H])c([2H])c(C([2H])([2H])N2CCC[C@@H](N3Cc4cc5c(-c6ccnc(C)c6)n[nH]c5cc4NC3=O)C2)c([2H])c1[2H]` [Compound 165], with < 50 nM; and `O=C1Nc2cc3[nH]nc(-c4ccnnc4)c3cc2CN1[C@@H]1CCCN(Cc2c(F)cccc2F)C1` [Compound 122], with < 50 nM.
Same read-out and setting: then `Cc1cc(-c2n[nH]c3cc4[nH]c(=O)c([C@H](C)c5ccccc5)cc4cc23)ccn1` [Compound 84], with < 50 nM; and `O=C1Nc2cc3[nH]nc(-c4ccccn4)c3cc2CN1Cc1cccc(Cl)c1` [Compound 91], with 50 to 250 nM.
For `O=C1Nc2cc3[nH]nc(-c4cncnc4)c3cc2CN1Cc1cccc(Cl)c1` [Compound 123], the concentration for half-maximal inhibition (IC50) was < 50 nM.
The same measure, in the same setting: then `Cc1cc(-c2n[nH]c3cc4c(cc23)CN([C@@H]2CCCN(CC3CCOCC3)C2)C(=O)N4)ccn1` [Compound 135], with 50 to 250 nM; and `Cc1cc(-c2n[nH]c3cc4c(cc23)CN([C@@H]2CCCN(Cc3cc(F)cc(F)c3)C2)C(=O)N4)ccn1` [Compound 163], with < 50 nM.

Still in this assay, the particulars now being: In vitro, ERK2 enzyme 0.47 ng/μL, 100 μM ATP.
As for `Cc1cc(-c2n[nH]c3cc4[nH]c(=O)c([C@@H](C)c5ccc(F)cc5)cc4cc23)ccn1` [Compound 287], the IC50 fell in the range of 50 to 250 nM.
Turning to `Cc1ncc(-c2n[nH]c3cc4c(cc23)CN([C@@H]2CCCN(Cc3ccccc3)C2)C(=O)N4)cn1` [Compound 292], the 50% inhibitory concentration (IC50) is < 50 nM.
Same read-out and setting: to `Cc1cc(-c2n[nH]c3cc4c(cc23)CN([C@@H]2CN(C)C[C@H]2c2ccccc2)C(=O)N4)cc(C)n1` [Compound 308] belongs < 50 nM; to `Cc1cc(-c2n[nH]c3cc4c(cc23)CN([C@@H]2CCN(C(C)C(F)(F)F)C2)C(=O)N4)ccn1` (some centres unmarked) [Compound 267], < 50 nM; to `Cc1cc(-c2n[nH]c3cc4c(cc23)CN([C@@H]2CCCN(CC(=O)C(C)C)C2)C(=O)N4)ccn1` [Compound 209], < 50 nM.
On the same count and under the same terms, to `COc1ncc(-c2n[nH]c3cc4c(cc23)CN(C2CN(Cc3ccccc3)CC(F)(F)C2)C(=O)N4)cn1` (centres unmarked) [Compound 320] belongs 50 to 250 nM.
Same read-out and setting: to `Cc1cc(-c2n[nH]c3cc4[nH]c(=O)c(C(CO)c5ccccc5)cc4cc23)ccn1` (centres unmarked) [Compound 328] belongs < 50 nM.
In the case of `Cc1cc(-c2n[nH]c3cc4c(cc23)CN([C@@H]2CN(C)C[C@H]2c2ccccc2)C(=O)N4)ccn1` (racemic) [Compound 241], the IC50 was < 50 nM.
Still for that read-out and setting: then `Cc1ccc(-c2n[nH]c3cc4c(cc23)CN([C@@H]2CCN(CC(F)(F)F)C2)C(=O)N4)cn1` [Compound 274], with < 50 nM; and `Cc1cc(-c2n[nH]c3cc4c(cc23)CN([C@@H]2CCCN(Cc3cccs3)C2)C(=O)N4)ccn1` [Compound 254], with < 50 nM; and `COc1cc(-c2n[nH]c3cc4[nH]c(=O)c(C5CCCN(Cc6ccccc6)C5)cc4cc23)ccn1` (centres unmarked) [Compound 370], with < 50 nM.
Same read-out and setting: to `Cc1cc(-c2n[nH]c3cc4[nH]c(=O)c(C(O)c5ccccc5)cc4cc23)ccn1` (centres unmarked) [Compound 221] belongs < 50 nM; to `Cc1cc(-c2n[nH]c3cc4c(cc23)CN(CCC2CC2)C(=O)N4)ccn1` [Compound 283], 50 to 250 nM; to `Cc1cc(-c2n[nH]c3cc4[nH]c(=O)c(C5CCCN(Cc6cc(F)ccc6F)C5)cc4cc23)ccn1` (centres unmarked) [Compound 336], < 50 nM.
On the same count and under the same terms, then `Cc1cc(-c2n[nH]c3cc4c(cc23)CN(C(C)C2CCCC2)C(=O)N4)ccn1` (centres unmarked) [Compound 294], with < 50 nM; and `CN(C)CCN1CCN(c2n[nH]c3cc4c(cc23)CN(Cc2ccc(F)c(Cl)c2)C(=O)N4)CC1` [Compound 260], with 250 to 1000 nM; and `COc1ccc(-c2n[nH]c3cc4c(cc23)CN([C@@H]2CN(CC(F)(F)F)C[C@H]2c2ccccc2)C(=O)N4)cn1` [Compound 374], with < 50 nM.
Take `Cc1cc(-c2n[nH]c3cc4c(cc23)CN([C@@H]2CN(C3CCOCC3)C[C@H]2c2ccccc2)C(=O)N4)ccn1` (mixture of isomers) [Compound 359]: the IC50 lay in the range of 50 to 250 nM.
On the same count and under the same terms, to `COc1ncc(-c2n[nH]c3cc4c(cc23)CN([C@H]2CCCN(Cc3ccccc3)C2)C(=O)N4)cn1` [Compound 365] belongs 50 to 250 nM; to `Cc1cc(-c2n[nH]c3cc4c(cc23)CN([C@@H]2CN(CC(F)(F)F)C[C@H]2C(F)(F)F)C(=O)N4)ccn1` [Compound 331], < 50 nM; to `Cc1cc(-c2n[nH]c3cc4c(cc23)CN([C@H]2CCCN(Cc3ccccc3)C2)C(=O)N4)cc(C)n1` [Compound 363], < 50 nM.
Still for that read-out and setting: then `Cc1cc(-c2n[nH]c3cc4c(cc23)CN(C2CCCC2)C(=O)N4)cc(C)n1` [Compound 239], with < 50 nM; and `Cc1cc(-c2n[nH]c3cc4c(cc23)CN([C@@H]2CCCN(CC(O)C(C)(C)C)C2)C(=O)N4)ccn1` (some centres unmarked) [Compound 236], with 50 to 250 nM.
Same read-out and setting: to `Cc1cc(-c2n[nH]c3cc4c(cc23)CN([C@@H]2CN(CC(F)(F)F)C[C@H]2C2CC2)C(=O)N4)ccn1` (mixture of isomers) [Compound 319] belongs 50 to 250 nM; to `Cc1cc(-c2n[nH]c3cc4c(cc23)CN([C@@H]2CCN(CC3CCCC3)C2)C(=O)N4)ccn1` [Compound 206], 250 to 1000 nM; to `O=C1Nc2cc3[nH]nc(-c4ccncc4)c3cc2CN1[C@@H]1CN(CC(F)(F)F)C[C@H]1c1ccccc1` [Compound 342], < 50 nM.
As to `Cc1cc(-c2n[nH]c3cc4c(cc23)CN(Cc2ccc(F)c(Cl)c2)C(=O)N4)cc(C)n1` [Compound 226], the IC50 was < 50 nM.
`Cc1cc(-c2n[nH]c3cc4c(cc23)CN([C@@H]2CN(CC(F)(F)F)C[C@H]2C(C)(C)C)C(=O)N4)ccn1` [Compound 329]: the IC50 lay within 250 to 1000 nM.
`COc1ncc(-c2n[nH]c3cc4c(cc23)CN([C@@H]2CN(C)C[C@H]2c2ccccc2)C(=O)N4)cn1` (mixture of isomers) [Compound 355]: the IC50 is < 50 nM.
